The results in this text go back to article PMC6934184, “Selective DNA-PKcs inhibition extends the therapeutic index of localized radiotherapy and chemotherapy” (The Journal of Clinical Investigation, 2019).

In general, inhibition refers to how much of the control response was suppressed. High values mean strong suppression, low ones little suppression.

This assay concerns the target T1, SRPK2 (Homo sapiens, UniProt P78362).
T1 construct: purchased Thermo Fisher Scientific (Life Technologies) SelectScreen
Put plainly: SelectScreen Z'LYTE. The class given is biochemical. An outline of the steps:
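NU5455 was profiled across the SelectScreen Broad panel of kinase activity and binding assays. Z'LYTE reactions such as CSF1R ran at apparent Km ATP, while the Adapta CAMK1 assay used ATP listed as 10. Values are given as percent.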

The structures appear in SMILES notation.

T1 sequence (P78362 whole entry): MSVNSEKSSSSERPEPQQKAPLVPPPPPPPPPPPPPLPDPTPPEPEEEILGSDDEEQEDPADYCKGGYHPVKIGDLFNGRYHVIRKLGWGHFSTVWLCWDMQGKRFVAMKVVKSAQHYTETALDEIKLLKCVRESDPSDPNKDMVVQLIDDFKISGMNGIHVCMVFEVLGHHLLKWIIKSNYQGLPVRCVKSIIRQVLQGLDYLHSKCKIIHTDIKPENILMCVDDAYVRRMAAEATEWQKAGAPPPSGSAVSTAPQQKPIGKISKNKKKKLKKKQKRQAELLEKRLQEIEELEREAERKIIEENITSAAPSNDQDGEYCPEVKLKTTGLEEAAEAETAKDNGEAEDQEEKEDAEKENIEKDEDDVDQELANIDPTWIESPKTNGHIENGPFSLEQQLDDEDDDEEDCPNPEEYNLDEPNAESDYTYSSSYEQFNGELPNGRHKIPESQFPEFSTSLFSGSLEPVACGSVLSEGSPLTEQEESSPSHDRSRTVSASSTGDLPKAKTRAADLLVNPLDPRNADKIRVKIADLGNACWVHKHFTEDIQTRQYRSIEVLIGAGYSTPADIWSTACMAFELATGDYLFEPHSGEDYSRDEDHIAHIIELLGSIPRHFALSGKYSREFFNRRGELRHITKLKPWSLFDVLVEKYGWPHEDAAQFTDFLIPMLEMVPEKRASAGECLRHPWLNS

As for `CN(C(=O)CN1CCOCC1)c1ccc2sc3c(-c4cccc5c(=O)cc(N6CC7CCC(C6)O7)oc45)cccc3c2c1` [NU5455], at 1 µM the inhibition was 3.9%.
